Read-outs that look alike come from different tables or passages of the source.
Columns and labels:
mammals = settings: cited from earlier work
[1] = tested on: mixed cultures containing fibroblast cells and tumour cells; assay: Mixed tissue culture of fibroblast cells and tumour cells; assay type: cell-based; settings: 12 hrs
Method: In addition when mixed cultures containing fibroblast cells and tumour cells are treated, the normal fibroblasts appear to survive while the tumour cells go into apoptosis.
The results of such an experiment are shown in FIG. 14, wherein a mixed tissue culture has been treated for 12 hrs with 5 uM Bisabolene. […] In FIG. 15 a mixed tissue culture has been treated for 12 hrs with 100 uM Ocimene.

[2] = tested on: S180 murine sarcoma cells; assay: MTT assay, cytotoxicity on S180 cells; settings: S180 and human tumour cells in culture
Method: Two transformed cell lines were chosen for MTT analysis, S180 murine sarcoma cells and HT1080 human fibrosarcoma cells. Cells were seeded in 96-well microliter plates at a density of 2×10^5 cells/ml and incubated at 37° C. and 5% CO2 for 24 hours prior to treatment. 200 ul PBS was added to the wells on the outer edges of the plate to reduce evaporation loss from the wells containing cells.
Serial dilutions were carried out to enable a range of progressively more dilute concentrations of extract to be tested. The same procedure was followed to make solutions of staurosporine and ethanol of the same concentrations. Staurosporine, an agent with well-established cytotoxic properties, was incorporated into the study to provide a benchmark to compare the cytotoxicity of the extracts against.
Careful mixing with a pipette ensured thorough dissolution. […] This was done immediately after addition of DMSO.
The method was also employed to test the impact of identified components of the Haddi extracts. Thus, trans-β-Ocimene and γ-Bisabolene both major components of the Haddi extract were tested using the MTT assay to estimate their impact on tumour cell cytotoxicity and viability, see FIGS. 7 to 10.

[3] = tested on: A375 cells (a human skin melanoma cell line); assay: MTT assay, cytotoxicity on A375 cells; assay type: cell-based; settings: for % Cytoxicity: A375 cells; for concentration inducing / required to initiate cell death: A375 tumour cells
[4] = tested on: MM6 cells (monocyte leukaemic cell line); settings: for % Cytoxicity: MM6 cells; for concentration as low as which high cell death is induced: MM6 tumour cells
Text: The MTT assay is a powerful, quantitative and highly reliable colourimetric assay that measures the viability of a cell population. […] The amount of formazan produced is directly proportional to the number of viable cells in the test population. The formazan product formed can be dissolved in dimethyl sulfoxide (DMSO), which enables quantification of the product to be obtained via spectrophotometry. A population containing largely viable cells will produce high levels of the formazan product and will therefore give a deep purple solution upon dissolution with DMSO, while a cell population that has mostly dead cells will produce a colourless solution. The amount of light absorbed (at a wavelength of 575 nm) can be converted to % cytotoxicity by using the following calculation: [control absorption−test absorption]X 100=% cytotoxicity control absorption Experimental Protocol
100 ul of each concentration of each extract/control were added to 3 separate wells in a labeled microtitre plate. In the untreated control wells 100 ul of medium was added—all wells having a total final volume of 200 ul. 3 identical replicates of this were carried out for testing after 24, 48 and 72 hours. All plates were incubated at 37° C. and 5% CO2 until reading.
After the required length of time (i.e. 24, 48 or 72 hours) 20 ul MTT solution (5 mg/ml) was added to each well (excluding wells containing only PBS). Plates were then returned to the incubator (under the same conditions) for a further 4 hours. MTT is photosensitive so all plates were covered in foil to minimise exposure to light. After 4 hours all medium from the wells was pipetted out (care was taken to avoid disturbing the formazan crystals) and 200 ul DMSO was added to each well. Careful mixing with a pipette ensured thorough dissolution. All plates were then read on a spectrophotometer for absorption of light at 575 nm. This was done immediately after addition of DMSO.

[5] = tested on: HT1080 human fibrosarcoma cells; assay: Annexin V bioassay of apoptosis in HT1080 cells; assay type: cell-based; settings: 5 uM, 12 hours
Text: The Annexin V bioassay is used to distinguish between cells dying via the apoptotic route and cells dying by necrosis. Knowing how ocimene and bisabolene cause cell death is crucial. […] This is because necrotic cells burst and release their content into the surroundings, thus causing an inflammatory response that is potentially harmful to neighbouring, non-target cells.
The Annexin V bioassay utilises an early change in the plasma membrane of apoptotic cells during which phosphatidylserine (PS), a membrane bound phospholipid, is translocated from the inner surface of the membrane bi-layer to the outer surface—thus bringing the PS into contact with the environment. This change occurs before membrane bleeding and far earlier than DNA fragmentation thus making it an ideal marker for early apoptotic cells. Annexin V is a Ca^2+-dependent phospholipid binding protein with a high affinity for PS. In this study the Annexin V was coupled to a fluorescent marker called FITC, to generate an Annexin V-FITC conjugate. FITC fluoresces with an intense green/yellow colour when viewed via fluorescent microscopy. Thus, early apoptotic cells will bind Annexin V-FITC on their plasma membranes and fluoresce- green/yellow, whereas late apoptotic cells will fluoresce green/yellow in the cytoplasm as well as at the membrane.
To identify necrotic cells another dying agent, propidium iodide (PI) is used. […]

Compound: C=C/C(C)=C/CC=C(C)C [trans-β-Ocimene, trans-β-ocimene]
- toxicity to mammals (mammals): non toxic to mammals
- survival of fibrocytes versus tumour cells in mixed culture ([1]; 100 uM): fibrocytes spread out and survive whilst tumour cells round off to form apoptotic bodies
- tumour cell death ([2]; concentrations above 200 mM): ~100%
- % Cytoxicity ([3]; 46 μM, 24 hours): 7%
- % Cytoxicity ([3]; 46 μM, 48 hours): −2%
- % Cytoxicity ([3]; 46 μM, 72 hours): −33%
- % Cytoxicity ([3]; 92 μM, 24 hours): −11%
- % Cytoxicity ([3]; 92 μM, 48 hours): −25%
- % Cytoxicity ([3]; 92 μM, 72 hours): −31%
- % Cytoxicity ([3]; 184 μM, 24 hours): 7%
- % Cytoxicity ([3]; 184 μM, 48 hours): 8%
- % Cytoxicity ([3]; 184 μM, 72 hours): −10%
- % Cytoxicity ([3]; 368 μM, 24 hours): 29%
- % Cytoxicity ([3]; 368 μM, 48 hours): 35%
- % Cytoxicity ([3]; 368 μM, 72 hours): 31%

Compound: CC(C)=CCC[C@](C)(O)C1CC=C(C)CC1 (stereo partly drawn) [α-Bisabolol, α-bisabolol]
- % Cytoxicity ([4]; 0.13 μM, 24 hours): 48%
- % Cytoxicity ([4]; 0.13 μM, 72 hours): 53%
- % Cytoxicity ([4]; 0.25 μM, 24 hours): 48%
- % Cytoxicity ([4]; 0.25 μM, 72 hours): 54%
- % Cytoxicity ([4]; 2.5 μM, 24 hours): 46%
- % Cytoxicity ([4]; 2.5 μM, 72 hours): 51%
- % Cytoxicity ([4]; 10 μM, 24 hours): 33%
- % Cytoxicity ([4]; 10 μM, 72 hours): 49%
- concentration as low as which high cell death is induced [4]: 0.13 µM
- % Cytoxicity ([3]; 28 μM, 24 hours): −2%
- % Cytoxicity ([3]; 28 μM, 72 hours): 1%
- % Cytoxicity ([3]; 56 μM, 24 hours): −27%
- % Cytoxicity ([3]; 56 μM, 72 hours): 10%
- % Cytoxicity ([3]; 112 μM, 24 hours): 10%
- % Cytoxicity ([3]; 112 μM, 72 hours): 26%
- % Cytoxicity ([3]; 225 μM, 24 hours): 31%
- % Cytoxicity ([3]; 225 μM, 72 hours): 41%
- concentration inducing / required to initiate cell death [3]: 225 µM

Compound: CC(C)=CCC/C(C)=C1/CC=C(C)CC1 [γ-Bisabolene, γ-bisabolene]
- % Cytoxicity ([4]; 0.13 μM, 24 hours): 3%
- % Cytoxicity ([4]; 0.13 μM, 48 hours): −37%
- % Cytoxicity ([4]; 0.13 μM, 72 hours): 13%
- % Cytoxicity ([4]; 0.25 μM, 24 hours): 49%
- % Cytoxicity ([4]; 0.25 μM, 48 hours): 68%
- % Cytoxicity ([4]; 0.25 μM, 72 hours): 80%
- % Cytoxicity ([4]; 2.5 μM, 24 hours): 51%
- % Cytoxicity ([4]; 2.5 μM, 48 hours): 70%
- % Cytoxicity ([4]; 2.5 μM, 72 hours): 78%
- % Cytoxicity ([4]; 10 μM, 24 hours): 45%
- % Cytoxicity ([4]; 10 μM, 48 hours): 67%
- % Cytoxicity ([4]; 10 μM, 72 hours): 78%
- concentration as low as which high cell death is induced [4]: 0.25 µM
- survival of fibrocytes versus tumour cells in mixed culture ([1]; 5 uM): fibrocytes survive whilst tumour cells round off as apoptotic bodies
- concentration at which potent [2]: around 50 mM
- induction of apoptotic cell death (Annexin V) [5]: induction of apoptotic cell death
- % Cytoxicity ([3]; 0.13 μM, 24 hours): 15%
- % Cytoxicity ([3]; 0.13 μM, 48 hours): 5%
- % Cytoxicity ([3]; 0.13 μM, 72 hours): 13%
- % Cytoxicity ([3]; 0.25 μM, 24 hours): 10%
- % Cytoxicity ([3]; 0.25 μM, 48 hours): 7%
- % Cytoxicity ([3]; 0.25 μM, 72 hours): 50%
- % Cytoxicity ([3]; 2.5 μM, 24 hours): 15%
- % Cytoxicity ([3]; 2.5 μM, 48 hours): 55%
- % Cytoxicity ([3]; 2.5 μM, 72 hours): 71%
- % Cytoxicity ([3]; 10 μM, 24 hours): 23%
- % Cytoxicity ([3]; 10 μM, 48 hours): 64%
- % Cytoxicity ([3]; 10 μM, 72 hours): 77%
- concentration inducing / required to initiate cell death [3]: 0.25 µM

Source: patent publication US20070259056A1, “Anti-Tumour Terpene Compounds” (COMPTON DEVELOPMENTS LTD., priority 2003, published 2007)
